The supplement of paper PMC4862054

Key:
Settings in all cases: incubation time: 72 h
CAL-120 [1] = test: normalised response (% of control), CellTox Green; higher = less cell death (100 = DMSO, 0 = benzethonium chloride kill control)
Summary of the method: (§1)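 Normalised signals at single concentrations make up the values. They come from breast cancer cell lines seeded (20 µl suspension) into 384-well plates with compound at 5 concentrations in 10-fold steps over a compound-specific 10,000-fold range, incubated 72 h, and read for CellTox Green fluorescence then CellTiter-Glo luminescence. Each plate was normalised to 0.1 % DMSO (100) and a positive kill control (0).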

MDA-MB-436 [2] = test: as above
Summary of the method: as §1

MFM-223 [3] = test: as above
Summary of the method: as §1

HCC1143 [4] = test: as above
Summary of the method: as §1

MDA-MB-453 [5] = test: as above
Summary of the method: as §1

CAL-51 [6] = test: as above
Summary of the method: as §1

BT-474 [7] = test: as above
Summary of the method: as §1

DU-4475 [8] = test: as above
Summary of the method: as §1

Hs578T [9] = test: as above
Summary of the method: as §1

MCF-10A [10] = test: as above
Summary of the method: as §1

MDA-MB-231 [11] = test: as above
Summary of the method: as §1

MDA-MB-468 [12] = test: as above
Summary of the method: as §1

HCC1599 [13] = test: as above
Summary of the method: as §1

CAL-85-1 [14] = test: as above
Summary of the method: as §1

CAL-148 [15] = test: as above
Summary of the method: as §1

BT-549 [16] = test: as above
Summary of the method: as §1

HDQ-P1 [17] = test: as above
Summary of the method: as §1

CAL-120 [18] = test: normalised response (% of control), CellTiter-Glo; higher = more viable cells (100 = DMSO, 0 = benzethonium chloride kill control)
Description: (§2)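 DSRT, 72 h incubation, CellTox Green / CellTiter-Glo readout. Signal is normalised to DMSO and benzethonium chloride controls. Value is the normalised response at dose 3.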

MDA-MB-436 [19] = test: as above
Description: as §2

MFM-223 [20] = test: as above
Description: as §2

HCC1143 [21] = test: as above
Description: as §2

MDA-MB-453 [22] = test: as above
Description: as §2

HCC1937 [23] = test: as above
Description: as §2

CAL-51 [24] = test: as above
Description: as §2

BT-474 [25] = test: as above
Description: as §2

DU-4475 [26] = test: as above
Description: as §2

Hs578T [27] = test: as above
Description: as §2

MCF-10A [28] = test: as above
Description: as §2

MDA-MB-231 [29] = test: as above
Description: as §2

MDA-MB-468 [30] = test: as above
Description: as §2

HCC1599 [31] = test: as above
Description: as §2

SK-BR-3 = test: as above
Description: as §2

CAL-85-1 [32] = test: as above
Description: as §2

CAL-148 [33] = test: as above
Description: as §2

BT-549 [34] = test: as above
Description: as §2

HDQ-P1 [35] = test: as above
Description: as §2

HCC1937 [36] = test: normalised response (% of control), CellTox Green; higher = less cell death (100 = DMSO, 0 = benzethonium chloride kill control)
Summary of the method: as §1

Structure (SMILES) | normalised response (CAL-120 [1]) [%] | normalised response (MDA-MB-436 [2]) [%] | normalised response (MFM-223 [3]) [%] | normalised response (HCC1143 [4]) [%] | normalised response (MDA-MB-453 [5]) [%] | normalised response (CAL-51 [6]) [%] | normalised response (BT-474 [7]) [%] | normalised response (DU-4475 [8]) [%] | normalised response (Hs578T [9]) [%] | normalised response (MCF-10A [10]) [%] | normalised response (MDA-MB-231 [11]) [%] | normalised response (MDA-MB-468 [12]) [%] | normalised response (HCC1599 [13]) [%] | normalised response (CAL-85-1 [14]) [%] | normalised response (CAL-148 [15]) [%] | normalised response (BT-549 [16]) [%] | normalised response (HDQ-P1 [17]) [%] | normalised response (CAL-120 [18]) [%] | normalised response (MDA-MB-436 [19]) [%] | normalised response (MFM-223 [20]) [%] | normalised response (HCC1143 [21]) [%] | normalised response (MDA-MB-453 [22]) [%] | normalised response (HCC1937 [23]) [%] | normalised response (CAL-51 [24]) [%] | normalised response (BT-474 [25]) [%] | normalised response (DU-4475 [26]) [%] | normalised response (Hs578T [27]) [%] | normalised response (MCF-10A [28]) [%] | normalised response (MDA-MB-231 [29]) [%] | normalised response (MDA-MB-468 [30]) [%] | normalised response (HCC1599 [31]) [%] | normalised response (SK-BR-3) [%] | normalised response (CAL-85-1 [32]) [%] | normalised response (CAL-148 [33]) [%] | normalised response (BT-549 [34]) [%] | normalised response (HDQ-P1 [35]) [%] | normalised response (HCC1937 [36]) [%]
CN1CCC(COc2cnc(-c3cccc(Cn4nc(-c5cccc(C#N)c5)ccc4=O)c3)nc2)CC1 (10 nM) | 95.4 | 88.8 | 103 | 89.6 | 100 | 83.9 | 94.1 | 99.5 | 76.3 | 70 | 98.5 | 73.8 | 101 | 108 | 108 | 103 | 115 | 98.8 | 89 | 89.8 | 101 | 89.2 | 94.6 | 64.8 | 96.7 | 99 | 92.8 | 94.9 | 102 | 93.2 | 100 | 80.8 | 97.2 | 92.9 | 104 | 96.4 | 
CCN1CCN(c2ccc(Nc3cc(N(C)C(=O)Nc4c(Cl)c(OC)cc(OC)c4Cl)ncn3)cc2)CC1 [NVP-BGJ398] (10 nM) | 96.6 | 103 | 89.8 | 81.9 | 99.5 | 76 | 98.8 | 98.7 | 92 | 100 | 99.2 | 154 | 91.5 | 112 | 101 | 95 |  | 91.4 | 95.2 | 95.8 | 100 | 92.7 | 96.9 | 58.6 | 102 | 97.8 | 99.9 | 98.1 | 93.2 | 99.4 | 115 | 97.7 | 100 | 97.2 | 99.4 | 104 | 106
C[C@]1(c2nc3c(C(N)=O)cccc3[nH]2)CCCN1 [Veliparib] (100 nM) | 98.3 | 61.1 | 108 | 95.9 | 103 | 96.9 | 101 | 102 | 111 |  | 95.9 | 107 | 115 | 105 | 103 | 108 | 109 | 96.5 | 99 | 98.6 | 100 | 102 | 101 | 76.4 | 98.3 | 103 | 102 | 96.5 | 105 | 96.5 | 102 | 95.2 | 105 | 96.4 | 101 | 102 | 87.8
C=CCNC1=C2C[C@@H](C)C[C@H](OC)[C@H](O)[C@@H](C)/C=C(\C)[C@H](OC(N)=O)[C@@H](OC)/C=C\C=C(/C)C(=O)NC(=CC1=O)C2=O [Tanespimycin] (100 nM) | 90.5 | 67.8 | 99 | 90.8 | 84.5 | 82.5 | 76.6 | 93.8 | 100 | 69.5 |  | 111 | 103 | 74.2 | 71.8 | 91.7 | 81.7 | 85.8 | 47.3 | 53.7 | 49.5 | 27.9 | 70.8 | 47.6 | 99.3 | 86.4 | 66.7 | 50 | 95.9 | 97.3 | 93.8 | 44.2 | 98.8 | 85.5 | 47.2 | 61.1 | 98.7
CS(=O)(=O)c1ccc(C(=O)Nc2ccc(Cl)c(-c3ccccn3)c2)c(Cl)c1 [Vismodegib] (100 nM) | 98.9 | 91.3 | 88.8 | 99.2 | 93.1 | 98.4 | 92.5 | 101 | 80 | 96.2 | 72.6 | 87 | 100 | 105 |  | 86.2 | 108 | 93.1 | 96 | 94.4 | 94.1 | 88.4 | 99 | 109 | 94.4 | 99.4 | 95.5 | 93 | 94.3 | 96.8 | 95.1 | 92.7 | 98.8 | 94.6 | 101 | 99 | 97.9
